In patent US20110190199A1, “Combination Therapy for Tuberculosis” (priority 2008, published 2011):
Where “and” joins values, the source holds several entries; their conditions need not be identical. Identical values can stand only once. Marks after values point to notes of the source that are not given here.

Experiments:
M. tuberculosis H37Rv = test: Example 9: compound of formula I added to first and second line anti-tuberculosis drugs (survival, lung CFU after 4 weeks); format: in vivo, mice; conditions: for Mean lung log10 CFU count (±) S.D. after 4 weeks of treatment with: Regimen alone / Mean lung log10 CFU count (±) S.D. after 4 weeks of treatment with: Regimen + U 25 mg/kg / Mean lung log10 CFU count (±) S.D. after 4 weeks of treatment with: Regimen + U 100 mg/kg: D0 8.36 ± 0.10; for Mean lung log10 CFU count (±) S.D. after 4 weeks of treatment with: Regimen alone: H 10, R 10, Eb 100, M 100 mg, Et 50, A 150 sc, C 20 mg/kg; for Mean lung log10 CFU count (±) S.D. after 4 weeks of treatment with: Regimen + U 25 mg/kg: labelled drug PLUS U 25 mg/kg; for Mean lung log10 CFU count (±) S.D. after 4 weeks of treatment with: Regimen + U 100 mg/kg: labelled drug PLUS U 100 mg/kg, lower limit of detection 3.40; for Time to 50% mortality: no treatment 21 days
[1] = tested on: Mycobacterium tuberculosis H37Rv; format: in vivo, mice; conditions: 25 mg/kg
[2] = tested on: Mycobacterium tuberculosis H37Rv; test: Example 6: in vivo activity of the combination (lung CFU after 4 and 8 weeks); design: species or system mice; conditions: for Lung log10 CFU counts (±SD) after treatment with the indicated regimen plus the compound of formula (I) 100 mg/kg/day, Day 28 / Lung log10 CFU counts (±SD) after treatment with the indicated regimen plus the compound of formula (I) 100 mg/kg/day, Day 56: labelled regimen PLUS compound of formula (I) 100 mg/kg/day, INH 25, RIF 10, PZA 150, MXF 100 mg/kg; for Lung log10 CFU counts (±SD) after treatment with the indicated regimen plus the compound of formula (I) 100 mg/kg/day, Day 28 / Lung log10 CFU counts (±SD) after treatment with the indicated regimen plus the compound of formula (I) 100 mg/kg/day, Day 56 / Lung log10 CFU counts (±SD) after treatment with the indicated regimen, Day 56 / Lung log10 CFU counts (±SD) after treatment with the indicated regimen, Day 28: Day 0 7.37 ± 0.12; for reduction in lung CFU counts from baseline over the first 28 days: monotherapy, compound of formula (I) 100, INH 25, RIF 10 mg/kg; for Lung log10 CFU counts (±SD) after treatment with the indicated regimen, Day 56 / Lung log10 CFU counts (±SD) after treatment with the indicated regimen, Day 28: regimen as labelled, INH 25, RIF 10, PZA 150, MXF 100, compound of formula (I) 100 mg/kg; for Lung log10 CFU counts (±SD) after treatment with the indicated regimen, Day 28: 100 mg/kg
[3] = tested on: Mycobacterium tuberculosis H37Rv; test: Example 8B: eight week dose ranging study (second phase after 4 weeks RHZU25); format: in vivo, mice; design: Lung CFU / CFU-U only: unit not given here; conditions: 8 weeks: 4 weeks RHZU25 (4.19 ± 0.26) then 4 weeks of the labelled treatment; R 10, H 25 mg/kg; untreated 5.49 ± 0.23
Protocol: Eighty of the mice from Group 4 (in Example 8A) that had been receiving 25 mg/kg of the compound of formula I (U) along with rifampin(R), isoniazid(H), and pyrazinamide(Z) were evaluated in the second phase of the study. They were assigned to one of the groups described below in Table 6 and the study was continued for an additional 4 weeks (i.e. 8 week results).
As described above, 5 animals served as the control and no further drugs were given. Five were given the combination of rifampin(R) and isoniazid (H), five given isoniazid (H) or rifampin(R) alone. […] Six of these groups were also dosed with rifampin (R). The rifampin and isoniazid was dosed in the same manner and in the same amount as in Example 8A.
At the conclusion of the eight (8) week experiment, all of the animals were sacrificed and CFU lung counts were obtained.

[4] = tested on: Mycobacterium tuberculosis H37Rv; test: Example 8C: additional dose ranging study (4 and 8 weeks); format: in vivo, mice; conditions: lung; 4 weeks RHZU100 then 4 weeks of the labelled control regimen without U; untreated 4.91 ± 0.17
Protocol: The protocol described above in Example 8A and 8B was carried out on an alternative occasion. The only substantive changes were the number of animals per group and the initial incubation period.
Testing continued for an additional 4 weeks with 60 of the mice from Test Group 2 immediately above. The mice either received U alone, at varying doses, or the combination of U and R. The following results were obtained.

| Molecule | Mean lung log10 CFU count (±) S.D. after 4 weeks of treatment with: Regimen alone (M. tuberculosis H37Rv) [log10 CFU] | Mean lung log10 CFU count (±) S.D. after 4 weeks of treatment with: Regimen + U 25 mg/kg (M. tuberculosis H37Rv) [log10 CFU] | Mean lung log10 CFU count (±) S.D. after 4 weeks of treatment with: Regimen + U 100 mg/kg (M. tuberculosis H37Rv) | Time to 50% mortality (M. tuberculosis H37Rv) [days] | also measured |
| --- | --- | --- | --- | --- | --- |
| NCC[C@H](O)C(=O)N[C@@H]1C[C@H](N)[C@@H](O[C@H]2O[C@H](CN)[C@@H](O)[C@H](O)[C@H]2O)[C@H](O)[C@H]1O[C@H]1O[C@H](CO)[C@@H](O)[C@H](N)[C@H]1O [A, amikacin] | 7.24 ± 0.14 | 6.78 ± 0.16 | 5.18 ± 0.17 log10 CFU | – | – |
| CC(C)/N=c1\cc2n(-c3ccc(Cl)cc3)c3ccccc3nc-2cc1Nc1ccc(Cl)cc1 [C, clofazimine] | 5.92 ± 0.24 | 6.25 ± 0.20 | 4.91 ± 0.14 log10 CFU | – | – |
| N[C@@H]1CON=C1O [Cs, cycloserine] | – | 7.19 ± 0.21 | 5.66 ± 0.11 log10 CFU | 22 | – |
| CC[C@@H](CO)NCCN[C@@H](CC)CO [Eb, ethambutol] | 7.41 ± 0.57 | 6.86 ± 0.16 | 5.50 ± 0.13 log10 CFU | 30 | – |
| CCc1cc(C(N)=S)ccn1 [Et, ethionamide] | 7.19 ± 0.04 | 7.18 ± 0.18 | 5.46 ± 0.15 log10 CFU | – | – |
| NNC(=O)c1ccncc1 [INH, isoniazid] | 7.01 ± 0.14 | 6.22 ± 0.06 | 5.79 ± 0.33 log10 CFU | – | log kill (reduction in mean lung CFU count compared to the baseline value) ([1]; 28 days): 1.87 log10; mean spleen weight ([1]; after 28 days of treatment, pre-treatment 105±11 mg, untreated 237±16 mg): 100 ± 1 mg; Lung log10 CFU counts (±SD) after treatment with the indicated regimen plus the compound of formula (I) 100 mg/kg/day, Day 28 [2]: 4.33 ± 0.29 log10 CFU; Lung log10 CFU counts (±SD) after treatment with the indicated regimen plus the compound of formula (I) 100 mg/kg/day, Day 56 [2]: 2.87 ± 0.23 log10 CFU; reduction in lung CFU counts from baseline over the first 28 days [2]: 1.58 log10; Lung log10 CFU counts (±SD) after treatment with the indicated regimen, Day 56 [2]: 4.53 ± 0.24 log10 CFU; Lung log10 CFU counts (±SD) after treatment with the indicated regimen, Day 28 [2]: 5.79 log10 CFU and 5.79 ± 0.14 log10 CFU; Lung CFU [3]: 4.46 ± 0.37 |
| COc1c(N2C[C@@H]3CCCN[C@@H]3C2)c(F)cc2c(=O)c(C(=O)O)cn(C3CC3)c12 [M, moxifloxacin] | 6.49 ± 0.12 | 7.08 ± 0.10 | 5.33 ± 0.30 log10 CFU | – | – |
| Nc1ccc(C(=O)O)c(O)c1 [Ps, para-aminosalicyclic acid] | – | 6.87 ± 0.21 | 5.39 ± 0.32 log10 CFU | 31 | – |
| CO[C@H]1/C=C/O[C@@]2(C)Oc3c(C)c(O)c4c(O)c(c(/C=N/N5CCN(C)CC5)c(O)c4c3C2=O)NC(=O)/C(C)=C\C=C\[C@H](C)[C@H](O)[C@@H](C)[C@@H](O)[C@@H](C)[C@H](OC(C)=O)[C@@H]1C [RIF, rifampin] | 6.23 ± 0.11 | 5.91 ± 0.21 | 5.02 ± 0.10 log10 CFU | – | Lung log10 CFU counts (±SD) after treatment with the indicated regimen plus the compound of formula (I) 100 mg/kg/day, Day 28 [2]: 3.73 ± 0.19 log10 CFU; Lung log10 CFU counts (±SD) after treatment with the indicated regimen plus the compound of formula (I) 100 mg/kg/day, Day 56 [2]: 1.29 ± 0.22 log10 CFU; reduction in lung CFU counts from baseline over the first 28 days [2]: 1.63 log10; Lung log10 CFU counts (±SD) after treatment with the indicated regimen, Day 56 [2]: 4.65 ± 0.24 log10 CFU; Lung log10 CFU counts (±SD) after treatment with the indicated regimen, Day 28 [2]: 5.74 log10 CFU and 5.74 ± 0.17 log10 CFU; Lung CFU [3]: 4.18 ± 0.55; CFU Count 8 weeks [4]: 4.16 ± 0.65 |
| NC(=O)c1cnccn1 [Z, pyrazinamide] | – | 4.73 ± 0.38 | ≦3.59*** log10 CFU | 21 | – |
| capreomycin | – | 6.81 ± 0.13 | 5.35 ± 0.17 log10 CFU | 22 | – |
